Experiments:
[1] = test system: mouse models with middle cerebral artery occlusion; assay: Mouse models with middle cerebral artery occlusion (MCAO, 2 h) and reperfusion: neurological symptoms, cerebral infarction size and volume; type: in vivo; settings: for Distribution of neurological scores: score 0 (number of mice) / Distribution of neurological scores: score 1 (number of mice) / Distribution of neurological scores: score 2 (number of mice) / Distribution of neurological scores: score 3 (number of mice) / Neurological scores Mean ± SEM: scored 22 hours after reperfusion, n = 9; for Neurological scores Mean ± SEM: score 0-3
Source text: Mouse models with acute ischemic stroke, namely, mouse models with middle cerebral artery occlusion were used as evaluation systems. The experiment consists of three experiments, i.e., Experiment 1 to evaluate the therapeutic efficacy of fidarestat (control group and fidarestat administration group), Experiment 2 to evaluate the protective effect of fidarestat (control group and fidarestat administration group), and Experiment 3 to evaluate the role of AR (wild-type mouse group and AR gene-deficient mouse group).
Used mice (C57BL/6J line, 22 to 28 g of body weight) were subjected to right middle cerebral artery occlusion (MCAO) by the filament method under gas anesthesia over 2 hours. Thereafter, anesthesia was terminated and the mice were kept in an intensive care system (ThermoCare, Inc) at 32° C. for 4 to 6 hours. The neurological symptoms, the cerebral infarction size, and the cerebral infarction volume were used as endpoints.
The evaluation of the neurological symptoms was determined 22 hours after reperfusion based on the following four scores:
0: no neurological deficit (normal); 1: stretching of the opposite forefoot (mild); 2: contra lateral circling (moderate); and 3: loss of walking and righting reflex (severe).
Evaluations of the cerebral infarction size and the cerebral infarction volume were performed as follows. After the evaluation of the neurological symptoms, the mouse brains were removed immediately and cut into 6 coronary slices with a thickness of 2 mm. In order to discover the sites of infarction, the slices were stained with 2% triphenyltetrazolium chloride (TTC) in a darkroom for 15 minutes and then fixed in 10% formalin buffer overnight. The posterior surface of each brain slice was photographed and analyzed using a digital image analyzing system (NeuroLucida, MicroBrightfield Inc.) The cerebral infarction size and the cerebral infarction volume (%) were calculated by an indirect method.
In Experiment 1 to evaluate the therapeutic efficacy of fidarestat, fidarestat was administered to the mice at 2 mg/kg 15 minutes before reperfusion. In Experiment 2 to evaluate the protective effect of fidarestat, fidarestat was administered to the mice at 10 mg/kg 30 minutes before occlusion. Only solvent was administered to the control group. In each case, forced intragastric administration was carried out.

[2] = as reported in Hatsumei Kyokai Kokai Giho No. 2006-500058; cited from earlier work
[3] = Experiment 1 (therapeutic efficacy): 2 mg/kg intragastric 15 minutes before reperfusion
[4] = Experiment 2 (protective effect): 10 mg/kg intragastric 30 minutes before occlusion

NC(=O)[C@@H]1C[C@]2(NC(=O)NC2=O)c2cc(F)ccc2O1 [Fidarestat, (2S,4S)-6-fluoro-2′,5′-dioxospiro[chroman-4,4′-imidazolidine]-2-carboxamide]
Cerebral infarction size observed after ischemic reperfusion ([1]; Experiment 1 (therapeutic efficacy): 2 mg/kg 15 minutes before reperfusion, FIG. 1, brain slice Nos. 3 and 4): significantly reduced
Cerebral infarction volume ([1]; Experiment 1 (therapeutic efficacy): 2 mg/kg 15 minutes before reperfusion, FIG. 4): the same result was also obtained
(Dead) number of mice [1, 3]: (n = 2)
Distribution of neurological scores: score 0 (number of mice) [1, 3]: 0
Distribution of neurological scores: score 1 (number of mice) [1, 3]: 7
Distribution of neurological scores: score 2 (number of mice) [1, 3]: 2
Distribution of neurological scores: score 3 (number of mice) [1, 3]: 0
Neurological scores Mean ± SEM ([1]; Experiment 1 (therapeutic efficacy): 2 mg/kg intragastric 15 minutes before reperfusion, P < 0.02 vs vehicle): 1.22 ± 0.15
Cerebral infarction size observed after ischemic reperfusion ([1]; Experiment 2 (protective effect): 10 mg/kg 30 minutes before occlusion, FIG. 2, brain slice Nos. 3 and 4): significantly reduced
Cerebral infarction volume ([1]; Experiment 2 (protective effect): 10 mg/kg 30 minutes before occlusion, FIG. 5): the same result was also obtained
Distribution of neurological scores: score 0 (number of mice) [1, 4]: 0
Distribution of neurological scores: score 1 (number of mice) [1, 4]: 7
Distribution of neurological scores: score 2 (number of mice) [1, 4]: 2
Distribution of neurological scores: score 3 (number of mice) [1, 4]: 0
Neurological scores Mean ± SEM ([1]; Experiment 2 (protective effect): 10 mg/kg intragastric 30 minutes before occlusion, P < 0.05 vs vehicle): 1.22 ± 0.14
Effect on the worsening of the neurological symptoms observed after ischemic reperfusion ([1]; Experiments 1 and 2 (2 mg/kg 15 minutes before reperfusion; 10 mg/kg 30 minutes before occlusion)): significant effect
Pharmacological effect on the blood coagulation system and the circulatory system [2]: no pharmacological effect

— patent US20090076105A1, “PREVENTIVE OR THERAPEUTIC AGENT FOR CEREBRAL ISCHEMIC INJURY OR CEREBRAL ISCHEMIA REPERFUSION IN STROKE” (SANWA KAGAKU KENKYUSHO CO., LTD., priority 2006, published 2009)
